Activity calls are given as the source filed them.
How the values were obtained:
[1] = HEp-2 cell cytotoxicity, dose response, cytotoxicity control for RSV inhibitor project, HTS (AID 2410); format: functional; details: human respiratory syncytial virus
[2] = molecular target: T1, Protein skinhead-1 (Caenorhabditis elegans, UniProt P34707); format: functional
T1 sequence (P34707 whole entry): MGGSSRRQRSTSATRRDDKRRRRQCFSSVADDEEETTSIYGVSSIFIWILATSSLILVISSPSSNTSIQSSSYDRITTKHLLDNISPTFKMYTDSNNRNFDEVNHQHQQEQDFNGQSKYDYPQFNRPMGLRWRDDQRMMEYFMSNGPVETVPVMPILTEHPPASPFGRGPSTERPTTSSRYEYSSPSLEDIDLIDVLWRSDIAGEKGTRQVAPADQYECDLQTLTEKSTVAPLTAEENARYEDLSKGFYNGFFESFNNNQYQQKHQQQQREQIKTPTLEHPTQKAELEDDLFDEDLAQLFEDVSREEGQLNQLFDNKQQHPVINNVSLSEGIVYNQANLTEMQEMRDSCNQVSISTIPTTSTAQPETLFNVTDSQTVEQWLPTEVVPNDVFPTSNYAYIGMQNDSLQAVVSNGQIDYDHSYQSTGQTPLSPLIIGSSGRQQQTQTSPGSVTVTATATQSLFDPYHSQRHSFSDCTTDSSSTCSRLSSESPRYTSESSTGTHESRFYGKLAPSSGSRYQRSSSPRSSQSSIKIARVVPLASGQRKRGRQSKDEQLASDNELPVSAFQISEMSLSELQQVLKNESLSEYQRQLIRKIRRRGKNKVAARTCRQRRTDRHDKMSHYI

[3] = molecular target: Cytochrome P450 2C19 (Homo sapiens, UniProt P33261); assay: Cytochrome panel assay with activity outcomes. Panel member name: p450-cyp2c19 Compounds with AC50 equal or less than 10 uM are considered active; format: functional; details: read-out: AC50
Sequence of Cytochrome P450 2C19 (P33261 whole entry): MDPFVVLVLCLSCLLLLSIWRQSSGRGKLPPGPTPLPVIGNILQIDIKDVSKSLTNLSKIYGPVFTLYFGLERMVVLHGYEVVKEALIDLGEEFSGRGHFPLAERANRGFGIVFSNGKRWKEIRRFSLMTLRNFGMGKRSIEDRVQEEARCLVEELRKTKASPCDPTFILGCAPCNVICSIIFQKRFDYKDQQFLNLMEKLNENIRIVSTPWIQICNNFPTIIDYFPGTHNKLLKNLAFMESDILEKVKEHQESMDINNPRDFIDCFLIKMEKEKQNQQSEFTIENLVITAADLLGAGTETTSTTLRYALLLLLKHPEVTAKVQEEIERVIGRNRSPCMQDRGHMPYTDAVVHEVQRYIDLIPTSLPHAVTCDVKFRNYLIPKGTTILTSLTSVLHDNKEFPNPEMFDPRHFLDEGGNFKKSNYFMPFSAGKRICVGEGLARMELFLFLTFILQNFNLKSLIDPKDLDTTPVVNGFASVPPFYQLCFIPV

[4] = molecular target: T2, Cytochrome P450 1A2 (Homo sapiens, UniProt P05177);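 further: PubChem cytochrome P450 panel assay, CYP1A2 panel member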
T2 sequence (P05177 whole entry): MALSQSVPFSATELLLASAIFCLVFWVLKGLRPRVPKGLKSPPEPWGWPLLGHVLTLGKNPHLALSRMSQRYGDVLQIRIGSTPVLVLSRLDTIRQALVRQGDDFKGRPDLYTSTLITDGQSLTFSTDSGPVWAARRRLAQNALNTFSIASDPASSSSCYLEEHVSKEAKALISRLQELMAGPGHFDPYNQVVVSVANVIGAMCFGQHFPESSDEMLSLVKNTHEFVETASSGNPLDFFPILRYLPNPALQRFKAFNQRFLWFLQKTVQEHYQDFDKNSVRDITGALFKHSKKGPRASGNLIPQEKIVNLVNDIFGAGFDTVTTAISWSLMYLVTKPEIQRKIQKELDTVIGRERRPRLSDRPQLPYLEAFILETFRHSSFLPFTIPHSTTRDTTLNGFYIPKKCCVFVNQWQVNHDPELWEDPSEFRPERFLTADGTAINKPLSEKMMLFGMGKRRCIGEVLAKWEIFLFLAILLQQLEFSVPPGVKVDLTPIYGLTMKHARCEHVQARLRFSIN

[5] = molecular target: Cytochrome P450 2C9 (Homo sapiens, UniProt P11712)
Sequence of Cytochrome P450 2C9 (P11712 whole entry): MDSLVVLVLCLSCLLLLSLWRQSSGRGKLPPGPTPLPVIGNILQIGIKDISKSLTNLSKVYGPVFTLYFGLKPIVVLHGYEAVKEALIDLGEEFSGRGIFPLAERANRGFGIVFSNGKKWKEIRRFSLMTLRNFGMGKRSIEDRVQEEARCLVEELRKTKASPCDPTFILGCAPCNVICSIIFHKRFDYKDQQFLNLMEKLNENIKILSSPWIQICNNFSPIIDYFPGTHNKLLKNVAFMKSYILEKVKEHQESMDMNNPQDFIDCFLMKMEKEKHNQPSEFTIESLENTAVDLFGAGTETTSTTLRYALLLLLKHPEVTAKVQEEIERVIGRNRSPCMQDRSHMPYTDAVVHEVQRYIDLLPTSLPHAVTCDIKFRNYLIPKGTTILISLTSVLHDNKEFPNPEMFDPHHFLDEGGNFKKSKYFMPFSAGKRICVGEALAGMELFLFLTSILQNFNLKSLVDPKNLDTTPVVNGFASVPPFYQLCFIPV

[6] = molecular target: T3, Rac GTPase-activating protein 1 (Homo sapiens, UniProt Q9H0H5); assay: MgcRacGAP GTPase-activating activity inhibitors, confirmation, biochemical, ADP Hunter fluorescence, primary and confirmatory (AID 624330); format: functional
T3 sequence (Q9H0H5 whole entry): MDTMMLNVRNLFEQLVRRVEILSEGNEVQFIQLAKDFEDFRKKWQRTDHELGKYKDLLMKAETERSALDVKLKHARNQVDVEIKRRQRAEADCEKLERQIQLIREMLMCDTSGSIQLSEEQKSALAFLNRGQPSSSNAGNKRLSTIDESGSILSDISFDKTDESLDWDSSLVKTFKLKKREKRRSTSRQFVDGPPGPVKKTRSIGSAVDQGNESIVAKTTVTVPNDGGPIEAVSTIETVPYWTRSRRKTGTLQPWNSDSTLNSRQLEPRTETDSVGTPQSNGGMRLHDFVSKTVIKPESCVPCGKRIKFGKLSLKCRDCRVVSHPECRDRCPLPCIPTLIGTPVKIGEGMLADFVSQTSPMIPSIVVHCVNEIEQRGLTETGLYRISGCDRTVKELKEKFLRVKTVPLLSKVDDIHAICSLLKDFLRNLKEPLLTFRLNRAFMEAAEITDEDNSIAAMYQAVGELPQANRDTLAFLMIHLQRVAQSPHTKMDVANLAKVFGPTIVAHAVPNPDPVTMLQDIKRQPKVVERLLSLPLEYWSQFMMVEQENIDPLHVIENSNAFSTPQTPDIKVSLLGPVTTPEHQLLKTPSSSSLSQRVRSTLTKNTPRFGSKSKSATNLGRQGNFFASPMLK

[7] = tested on: Streptococcus sp. 'group A'; assay: growth inhibition of control SK(-) GAS strain, dose response, counter-screen for streptokinase expression inhibitor project, luminescence, kanamycin, BacTiterGlo, confirmation (AID 1900); format: functional, organism-based
[8] = molecular target: T4, Streptokinase A (Streptococcus pyogenes serotype M1, UniProt P10520); assay: S. pyogenes streptokinase expression inhibitors, potency, dose response, plasminogen activation absorbance, OD405 (AID 1914); format: functional, Streptococcus pyogenes M1 GAS;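 further: secreted streptokinase activity via plasminogen activation per viability signal from cell pellet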
T4 sequence (P10520 whole entry): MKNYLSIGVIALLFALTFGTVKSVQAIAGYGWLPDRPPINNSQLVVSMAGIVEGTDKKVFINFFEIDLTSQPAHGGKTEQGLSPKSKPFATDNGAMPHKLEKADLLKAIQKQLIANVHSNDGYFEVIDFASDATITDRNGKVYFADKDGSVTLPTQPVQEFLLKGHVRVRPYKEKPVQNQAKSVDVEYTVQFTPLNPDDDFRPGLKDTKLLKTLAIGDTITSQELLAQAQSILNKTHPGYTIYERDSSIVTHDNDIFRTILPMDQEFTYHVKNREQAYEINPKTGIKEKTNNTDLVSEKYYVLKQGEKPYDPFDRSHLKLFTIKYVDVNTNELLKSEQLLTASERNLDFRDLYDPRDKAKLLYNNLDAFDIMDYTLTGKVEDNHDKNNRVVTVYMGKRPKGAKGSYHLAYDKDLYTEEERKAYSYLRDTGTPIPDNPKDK

[9] = tested on: Streptococcus; assay: Group A Streptococcus viability loss, dose response, counter-screen for streptokinase expression inhibitor project, luminescence, BacTiterGlo (AID 1915); format: functional, organism-based;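 further: potency for reduction of bacterial viability or growth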
[10] = Luminescence Cell-Based Dose Response HTS to Identify Activators of Luciferase Translation or Activity in H4 […] Cells. [Related pubchem assays: 1829 (Project Summary), 1814 (Primary HTS)]; format: functional
[11] = tested on: H4; assay: Luminescence Cell-Based Dose Response HTS to Identify Activators of 5'UTR Stem-Loop Driven Prion Protein mRNA Translation in H4 Neuroglioblastoma Cells. [Related pubchem assays: 1829 (Project Summary), 1814 (Primary HTS)]; format: functional; details: Homo sapiens
[12] = molecular target: Luciferin 4-monooxygenase (Photinus pyralis, UniProt P08659); assay: firefly luciferase enzyme inhibitors, dose response, biochemical, luminescence (AID 1891)
Sequence of Luciferin 4-monooxygenase (P08659 whole entry): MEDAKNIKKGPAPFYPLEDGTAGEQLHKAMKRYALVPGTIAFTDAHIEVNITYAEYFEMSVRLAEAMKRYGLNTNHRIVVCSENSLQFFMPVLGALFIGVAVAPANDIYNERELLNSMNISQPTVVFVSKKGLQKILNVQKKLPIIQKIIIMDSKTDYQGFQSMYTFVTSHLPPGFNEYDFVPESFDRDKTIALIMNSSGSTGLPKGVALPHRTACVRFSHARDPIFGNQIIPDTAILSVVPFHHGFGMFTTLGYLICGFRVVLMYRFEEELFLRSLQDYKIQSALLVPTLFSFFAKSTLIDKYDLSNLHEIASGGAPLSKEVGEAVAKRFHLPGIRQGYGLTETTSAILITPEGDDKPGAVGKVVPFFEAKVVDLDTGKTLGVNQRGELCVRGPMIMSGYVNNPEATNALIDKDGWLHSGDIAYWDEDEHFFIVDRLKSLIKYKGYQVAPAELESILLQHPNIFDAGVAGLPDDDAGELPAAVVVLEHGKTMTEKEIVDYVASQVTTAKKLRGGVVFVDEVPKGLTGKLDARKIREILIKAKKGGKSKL

[13] = Luminescence Cell-Based Dose Confirmation HTS to Identify Inhibitors of Platelet Dense Granule Release. [Related pubchem assays: 1663 (Primary HTS), 1678 (Summary of Project)]; format: functional

CC(=O)c1ccc(NCC2COc3ccccc3O2)c([N+](=O)[O-])c1 (stereo unspecified)
CC50 [1]: > 50 µM (active)

Cc1[nH]c2ccccc2c1SCc1ccccc1
IC50 [2]: 42.6 µM (active)

O=C(c1ccncc1)N1CCC2(CC1)CCN(C(c1ccccc1)c1ccccc1)CC2
AC50 [3]: 39.8 µM (inconclusive) | AC50 [4]: 12.6 µM (inconclusive) | AC50 [5]: 12.6 µM (inconclusive)

CCCS(=O)(=O)N1CCN(C2CCC(C)CC2)CC1 (stereo unspecified)
IC50 [6]: 232 µM (active)

O=C(Nc1ccc2c(c1)CCC2)c1ccc(Cl)nc1
CC50 [1]: 36.7 µM (active)

Cc1ccc2c(c1)CCCN2C(=O)CSc1ccccc1
CC50 [1]: 47.2 µM (active)

COc1ccc(C2CC(c3ccccc3)=NN2C(=O)c2cccs2)cc1 (stereo unspecified)
EC50 [7]: 4.88 µM (active) | EC50 [8]: > 150 µM (not active) | EC50 [9]: 12.4 µM (active) | IC50 [2]: > 100 µM (inactive)

COc1ccc(NCCC(O)c2ccc(Cl)cc2)cc1 (stereo unspecified)
IC50 [6]: 29.1 µM (active)

CCOC(=O)C1CCCN(C2=NC(=O)/C(=C/c3ccc(O)c(OCC)c3)S2)C1 (stereo unspecified)
IC50 [6]: 26.5 µM (active)

O=S(=O)(c1ccccc1C(F)(F)F)N1CCC(c2nc(O)c3nnn(Cc4cccc(F)c4)c3n2)CC1
CC50 [1]: 32.2 µM (active)

O=C1C=C(c2ccc3ncccc3c2)C[C@@H](c2ccc(F)cc2)C1
CC50 [1]: 30 µM (active)

COc1ccc2nc(-c3ccc(Cl)cc3)cc(C(=O)O)c2c1
CC50 [1]: 19.9 µM (active)

CC(=O)N1CCN(c2ccc(NCc3ccc(C(C)C)cc3)cc2)CC1
IC50 [2]: > 100 µM (inactive) | IC50 [6]: 10.4 µM (active)

Fc1ccc(N2CCN(c3cnc4ccccc4n3)CC2)cc1
EC50 [10]: 0.244 µM (active) | EC50 [11]: 12.8 µM (active) | IC50 [2]: 72.8 µM (inactive)

CSCC[C@H](N)C(=O)N1CCC(C(=O)N[C@@H](Cc2c[nH]c3ccccc23)C(=O)O)CC1
IC50 [2]: > 100 µM (inactive)

CC(C)C(c1nnnn1Cc1ccco1)N1CCN(C2CCCC2)CC1 (stereo unspecified)
IC50 [2]: > 100 µM (inactive)

Cc1cc(Nc2ccccc2C(=O)O)n(-c2cccc(Cl)c2)n1
CC50 [1]: 30.9 µM (active)

O=C(NCc1ccco1)c1sc2cc(Cl)ccc2c1Cl
IC50 [2]: > 100 µM (inactive)

CCc1ccc(Nc2oc(C)cc(=O)c2C(C)=O)cc1
IC50 [2]: > 100 µM (inactive)

CN1/C(=C\C(=O)Nc2cccc(Cl)c2)C(C)(C)c2ccccc21
IC50 [2]: > 100 µM (inactive)

COc1ccccc1C(=O)Nc1ccc2c(c1)nc(CCNC(=O)c1ccccc1)n2C
IC50 [2]: > 100 µM (inactive)

O=c1cc(CN2CCOCC2)c2ccc(O)c(O)c2o1
IC50 [6]: 82.7 µM (active)

CCCCCOC(=O)c1ccc(NC(=O)c2ccco2)cc1
IC50 [2]: > 100 µM (inactive)

CC1=N/C(=C\c2ccc([N+](=O)[O-])cc2)C(=O)N1c1ccc(Br)c(C)c1
AC50 [4]: 5.62 µM (inconclusive) | AC50 [5]: 7.94 µM (inconclusive)

CC(C)CCNC(=O)NC(=O)COc1c(F)c(F)cc(F)c1F
IC50 [2]: > 100 µM (inactive)

O=C(c1cccc(F)c1)N1CCN(C2CCCCC2)CC1
IC50 [6]: 116 µM (active)

CC1Cc2ccccc2N1S(=O)(=O)c1cccc(C(=O)NC2CC2)c1 (stereo unspecified)
CC50 [1]: > 50 µM (active)

O=S(=O)(Cc1ccc(Cl)cc1)Oc1ccc(Cl)cc1
IC50 [2]: > 100 µM (inactive)

COc1ccc(NS(=O)(=O)c2cccc(C(=O)NN=Cc3ccc(O)c(OC)c3)c2)cc1
IC50 [6]: 79.4 µM (active)

Cn1nccc1C(=O)N1CCC(Cc2ccccc2)CC1
IC50 [2]: > 100 µM (inactive)

C/C(=N\NC(=O)C1CC1)c1ccc(Cl)c(Cl)c1
CC50 [1]: > 50 µM (active)

COc1cc(/C=N/NC(=O)/C(=C/c2ccccc2)CCO)ccc1O
EC50 [12]: > 112 µM (not active) | EC50 [13]: 11.1 µM (active) | IC50 [6]: 35.7 µM (active)

CCOC(=O)Nc1ccc(NCc2ccc(F)cc2)nc1N [FLUPIRTINE]
AC50 [3]: 25.1 µM (inconclusive) | AC50 [4]: 39.8 µM (inconclusive) | AC50 [5]: 25.1 µM (inconclusive)

Reference: ChEMBL document CHEMBL1201862, “PubChem BioAssay data set” (2004)
